Test results as given in patent US20210395311A1, “CYCLIC PEPTIDE DIMERS” (New York University, priority 2019, published 2021).
Entries after “also recorded” stand apart in the source; their conditions may differ. Bridge positions count the residues as written; N and C are the ends. Ends that are not written are not given here. I, II: the chains in the order shown.

Tests used:
[1] = Solubility of the synthetic peptides; format: physicochemical; settings: 10% acetonitrile in water was used to dissolve
Source text: It was synthesized separately. For 324822, protected linear peptide was cleaved from resin and cyclized in DMF following the above procedure. After removing the protecting groups, the peptide was isolated by RP-HPLC purification. […] 10% acetonitrile in water was used to dissolve the peptides.

[2] = tested on: B16F10 mouse melanoma cells; experiment: CIF in vitro bioassay: contact inhibitory response of B16F10 cells to test samples; format: cell-based; settings: for CIF activity of synthesized monomer and dimer: monomer and dimer separated by RP-HPLC, each separately bioassayed; for contact inhibition activity of cyclic peptide dimer isomers: peptides A-C unprotected, D-F with one Acm-protected Cys per ring
Source text: Contact Inhibitory Factor is a Structurally Novel Endogenous Cyclic Decapeptide Dimer. Determining the Structure of the CIF Molecule—Overall Approach. Identifying the molecule responsible for restoring contact inhibition of growth to melanoma cells first required production of the CIF positive culture medium from the serum free AM cell line (SFAMCM), followed by column chromatography, electrophoresis and mass spectroscopy of this culture medium. Samples obtained after each procedure were evaluated for CIF activity with an in vitro bioassay (Bioassay described herein). Identification of CIF structure evolved in three stages: (1) the CIF active conditioned medium from the AM cells (SFAMCM) contained a single decapeptide; (2) the decapeptide is head-to-tail cyclic; (3) the complete bioactive CIF molecule is a dimer composed of identical disulfide linked cyclic decapeptides. An in vitro bioassay used to monitor and guide purification involved the contact inhibitory response of B16F10 mouse melanoma cells to test samples. The latter included (1) CIF-containing medium from both the AM and revertant FF cell lines; (2) all fractions derived from the AM medium during purification; (3) the synthetic CIF peptide. Results were evaluated independently by two investigators. Samples were graded from 0 to 4, where 0 indicated no activity and 4 indicated maximum activity. Only samples graded 3 or 4 by both investigators were selected for purification.
Bioassay. Preparation of Samples. Conditioned Culture Medium (SFFFCM) and (SFAMCM). The positive control was the CIF positive conditioned culture medium from the FF cell line, SFFFCM. The negative control was DMEM 10% FBS. 3.6 ml of the sample was pipetted into a sterile 15 ml tube and heat activated at 80° C.×10 mins (minutes). After cooling to room temperature 0.4 ml FBS was added to make the FBS concentration 10%. For different volumes of conditioned culture medium the appropriate volume of FBS was added to make the final FBS concentration 10%. Both SFFFCM and SFAMCM were lyophilized and stored in desiccator jars under vacuum at 3° C.
Lyophilized Samples. To prepare the SFFFCM and the SFAMCM for the bioassay they were reconstituted with DMEM, heat activated at 80° C.×10 mins and cooled to room temperature. Sufficient volume of FBS was added to make the final FBS concentration 10%. The final volume of the sample was at least 2 ml to ensure that there was enough material for refeeding the bioassay plates.
Dilution of Samples. The samples were tested at 1:1 (undiluted), 1:2 and 1:4. The dilutions were made with DMEM 10% FBS. Higher dilutions may be used as needed. Each well contained 0.2 ml of sample, including the positive and negative controls. Each sample was done in duplicate. The wells were refed with fresh sample after 48 hrs.
Setting up the Bioassay. Using a 96 well flat bottom plate, 0.2 ml sterile water was pipetted into all outside wells. 0.2 ml 10% DMEM containing 20,000 B16F10 cells were pipetted into each well for the bioassay. Each sample was done in duplicate, including positive and negative controls. […]. The plate was placed in a 37° C., 5% CO2 incubator for approximately 4 hours to allow for cells to attach and spread. The time for attachment may vary for other cell lines. After the cells had attached and spread, the DMEM was removed and replaced with 0.2 ml of sample, positive and negative controls. The wells were observed daily and scored for CIF activity. The wells were refed after 48 hours or as needed, 0.2 ml for weekdays, 0.3 ml for weekends.
Scoring for CIF Activity. The samples were scored for CIF activity as follows:
4+=All cells are contact inhibited, flattened with an elongated fibroblast-like morphology. 3+=Not all cells are contact inhibited, elongated or fibroblast-like. There are a few scattered clusters of dividing cells. 2+=Fewer contact Inhibited cells and more clusters of dividing cells. […]

Row | Substance | contact inhibition activity of cyclic peptide dimer isomers [2] | further results
1 | c (Gly-Met-Met-Cys-Val-Thr-His-Cys-Asn-Gly (SEQ ID NO:1)) w/Cys-Cys bridge (cyclo(GMMCVTHCNG); disulfide 4-8 (inferred)) [compound 324822] | – | solubility in 100% aqueous solution [1]: not soluble
2 | dimer: synthesized CIF dimer of two identical disulfide linked head-to-tail cyclic decapeptides (SEQ ID NO:1), peak at 2068 Da (cyclo(GMMCVTHCNG); also: disulfide-linked dimer of two identical cyclic peptides, Cys not given here) | – | CIF activity of synthesized monomer and dimer [2]: strongly positive; CIF activity of synthesized monomer and dimer ([2]; listed as synthetic dimer): CIF positive
3 | monomer: synthetic head-to-tail cyclic decapeptide Gly-Met-Met-Cys-Val-Thr-His-Cys-Asn-Gly (SEQ ID NO:1), peak at 1034 Da (GMMCVTHCNG; head-to-tail cyclized) | – | CIF activity of synthesized monomer and dimer [2]: CIF negative
4 | peptide A: two head-to-tail cyclized SEQ ID NO:1 peptides; Cys at position 8 disulfide bonded to Cys at position 8 of the second (chain 1 GMMCVTHCNG; chain 2 GMMCVTHCNG; disulfide I:8-II:8; cysteine pairing not given here; also: head-to-tail to a chain's N/C-terminus) | suitable contact inhibitors | –
5 | peptide B: two head-to-tail cyclized SEQ ID NO:1 peptides; Cys at position 4 disulfide bonded to Cys at position 4 of the second (chain 1 GMMCVTHCNG; chain 2 GMMCVTHCNG; disulfide I:4-II:4; cysteine pairing not given here; also: head-to-tail to a chain's N/C-terminus) | suitable contact inhibitors | –
6 | peptide C: two head-to-tail cyclized SEQ ID NO:1 peptides; Cys at position 8 disulfide bonded to Cys at position 4 of the second (chain 1 GMMCVTHCNG; chain 2 GMMCVTHCNG; disulfide I:8-II:4; cysteine pairing not given here; also: head-to-tail to a chain's N/C-terminus) | suitable contact inhibitors | –
7 | peptide D: SEQ ID NO:1 head to tail cyclized, attached via a disulfide bond, one Cys on each sequence acetamidomethyl (Acm) protected (chain 1 GMMCVTHCNG; chain 2 GMMCVTHCNG; disulfide (positions not given here); also: one Cys per chain Acm-protected, which not given here, head-to-tail to a chain's N/C-terminus) | did not have activity; also recorded: not effective contact inhibitors | –
8 | peptide E: SEQ ID NO:1 head to tail cyclized, attached via a disulfide bond, one Cys on each sequence acetamidomethyl (Acm) protected (chain 1 GMMCVTHCNG; chain 2 GMMCVTHCNG; disulfide (positions not given here); also: one Cys per chain Acm-protected, which not given here, head-to-tail to a chain's N/C-terminus) | did not have activity; also recorded: not effective contact inhibitors | –
9 | peptide F: SEQ ID NO:1 head to tail cyclized, attached via a disulfide bond, one Cys on each sequence acetamidomethyl (Acm) protected (chain 1 GMMCVTHCNG; chain 2 GMMCVTHCNG; disulfide (positions not given here); also: one Cys per chain Acm-protected, position not given here, head-to-tail to a chain's N/C-terminus, head-to-tail to a chain's N/C-terminus) | did not have activity; also recorded: not effective contact inhibitors | –
